Laboratory results: ChEMBL document CHEMBL3286190, “Discovery of antitubulin agents with antiangiogenic activity as single entities with multitarget chemotherapy potential” (ACS Med Chem Lett, 2014)
The source made the active and inactive calls. The rule behind the calls is not given here.

Tests used:
4T1 [1] = experiment: Antitumor activity against mouse 4T1 cells expressing luciferase allografted in BALBc/J mouse assessed as suppression of tumor growth at 35 mg/kg twice weekly measured up to 30 days; type: functional, organism-based; set-up: dose 35 mg/kg
Mus musculus [2] = experiment: Toxicity in athymic BALBc/J mouse xenografted with human MDA-MB-435 cells assessed as body weight at 35 mg/kg twice weekly; type: organism-based; set-up: dose 35 mg/kg; conditions: in vivo
U-251 [3] = experiment: Antitumor activity against human U251 cells xenografted into athymic NCr mouse assessed as decrease in tumor growth at 35 mg/kg twice weekly measured up to 34 days; type: functional, organism-based; set-up: dose 35 mg/kg
MDA-MB-435 [4] = experiment: Antitumor activity against human MDA-MB-435 cells xenografted into flank of […] assessed as decrease in tumor growth at 35 mg/kg twice weekly measured up to 34 days; type: functional, organism-based; set-up: dose 35 mg/kg
MDA-MB-435 [5] = experiment: Antitumor activity against human MDA-MB-435 cells xenografted into flank of athymic BALBc/J mouse assessed as decrease in tumor vascular density at 35 mg/kg twice weekly by CD31/PECAM-1 immunohistochemical staining; type: functional, organism-based; set-up: dose 35 mg/kg
4T1 [6] = experiment: Antitumor activity against ip dosed mouse 4T1 cells expressing luciferase allografted in BALBc/J mouse assessed as reduction in lung metastases at 35 mg/kg twice weekly measured after 32 days; type: functional, organism-based; set-up: dose 35 mg/kg
Mus musculus [7] = experiment: Toxicity in athymic NCr mouse xenografted with human cells at 35 mg/kg twice weekly measured up to 34 days; conditions: in vivo, 816 h
Mus musculus [8] = experiment: Toxicity in BALBc/J mouse allografted with mouse 4T1 cells at 35 mg/kg twice weekly measured up to 32 days; type: organism-based; set-up: dose 35 mg/kg; conditions: in vivo, 768 h
HeLa [9] = experiment: Growth inhibition of wild type human HeLa cells after 96 hrs incubation by sulforhodamine B technique; type: functional, cell-based
HeLa [10] = experiment: Growth inhibition of human HeLa cells overexpressing beta-3 after 96 hrs incubation by sulforhodamine B technique; type: functional, cell-based
Tubulin = Tubulin (Bos taurus, UniProt Q6B856+Q862L2+Q862F3); experiment: Inhibition of bovine brain tubulin assembly preincubated for 15 mins followed by GTP addition measured for 20 mins by spectrophotometry
[11] = Growth inhibition of human OVCAR8 cells after 96 hrs incubation by sulforhodamine B technique; type: functional, cell-based; conditions: OVCAR-8, 96 h
NCI/ADR-RES = experiment: Growth inhibition of human NCI/ADR-RES cells overexpressing P-gp after 96 hrs incubation by sulforhodamine B technique; type: functional, cell-based
MDA-MB-435 [12] = experiment: Antitumor activity against human MDA-MB-435 cells xenografted into flank of […] assessed as decrease in tumor growth at 30 mg/kg twice weekly measured up to 34 days; type: functional, organism-based; set-up: dose 30 mg/kg
Mus musculus [13] = experiment: Toxicity in athymic NCr mouse at 30 mg/kg twice weekly measured up to 34 days; conditions: in vivo, 816 h
Mus musculus [14] = experiment: Toxicity in athymic BALBc/J mouse xenografted with human MDA-MB-435 cells assessed as body weight at 30 mg/kg twice weekly; type: organism-based; set-up: dose 30 mg/kg; conditions: in vivo
U-251 [15] = experiment: Antitumor activity against human U251 cells xenografted into athymic NCr mouse assessed as decrease in tumor growth at 30 mg/kg twice weekly measured up to 34 days; type: functional, organism-based; set-up: dose 30 mg/kg
MDA-MB-435 [16] = experiment: Antitumor activity against human MDA-MB-435 cells xenografted into flank of athymic BALBc/J mouse assessed as decrease in tumor vascular density at 30 mg/kg twice weekly by CD31/PECAM-1 immunohistochemical staining; type: functional, organism-based; set-up: dose 30 mg/kg
MDA-MB-435 [17] = experiment: Cell cycle arrest in human MDA-MB-435 cells assessed as increase in accumulation at G2/M phase at IC50 concentration after 2 hrs by propidium iodide staining-based flow cytometry; type: functional
Mus musculus [18] = experiment: Toxicity in athymic BALBc/J mouse xenografted with human MDA-MB-435 cells assessed as body weight at 25 mg/kg twice weekly; type: organism-based; set-up: dose 25 mg/kg; conditions: in vivo
4T1 [19] = conditions: Mus musculus, 25 mg/kg
Description: Antitumor activity against ip dosed mouse 4T1 cells expressing luciferase allografted in BALBc/J mouse assessed as reduction in lung metastases at 25 mg/kg twice weekly measured after 32 days

MDA-MB-435 [20] = conditions: Homo sapiens, 25 mg/kg
Description: Antitumor activity against human MDA-MB-435 cells xenografted into flank of athymic BALBc/J mouse assessed as decrease in tumor growth at 25 mg/kg twice weekly measured up to 34 days

Chorioallantoic membrane = experiment: tissue or blood; conditions: Gallus gallus
Description: Antiangiogenic activity in chicken chorioallantoic membrane assessed as inhibition of VEGF/bFGF-induced angiogenesis treated 8 hrs after VEGF/bFGF addition measured after 40 hrs by microscopy

4T1 [21] = conditions: Mus musculus, 25 mg/kg; remark: listed apart in the source
Description: Antitumor activity against mouse 4T1 cells expressing luciferase allografted in BALBc/J mouse assessed as suppression of tumor growth at 25 mg/kg twice weekly measured up to 30 days

U-251 [22] = conditions: Homo sapiens, 25 mg/kg
Description: Antitumor activity against human U251 cells xenografted into athymic NCr mouse assessed as decrease in tumor growth at 25 mg/kg twice weekly measured up to 34 days

MDA-MB-435 [23] = experiment: Induction of apoptosis in human MDA-MB-435 cells assessed as PARP cleavage at IC50 concentration after 48 hrs by Western blotting analysis; type: functional, cell-based
Tubulin (Homo sapiens) = Tubulin (Homo sapiens) (UniProt P68371+Q9H4B7+P0DPH7+P68366+Q13509+Q71U36+P04350+Q3ZCM7+P07437+P68363+Q9BQE3+Q6PEY2+Q13885+Q9BVA1+Q9BUF5); experiment: Displacement of [3H]-colchicine from tubulin (unknown origin) at 50 uM relative to control; type: protein-complex assay
MDA-MB-435 [24] = conditions: Homo sapiens, 25 mg/kg; remark: listed apart in the source
Description: Antitumor activity against human MDA-MB-435 cells xenografted into flank of athymic BALBc/J mouse assessed as decrease in tumor vascular density at 25 mg/kg twice weekly by CD31/PECAM-1 immunohistochemical staining

Mus musculus [25] = experiment: Toxicity in BALBc/J mouse allografted with mouse 4T1 cells at 25 mg/kg twice weekly measured up to 32 days; type: organism-based; set-up: dose 25 mg/kg; conditions: in vivo, 768 h
Mus musculus [26] = experiment: Toxicity in athymic NCr mouse xenografted with human U251 cells at 25 mg/kg twice weekly measured up to 34 days; type: organism-based, U-251; set-up: dose 25 mg/kg; conditions: in vivo, 816 h
NCI60 = experiment: Growth inhibition of human NCI60 cells after 96 hrs incubation by sulforhodamine B technique; type: functional, cell-based
Homo sapiens = species on record: Homo sapiens; experiment: Disruption of microtubule organization in human MDA-MB-435 cells at IC50 concentration after 2 hrs by immunofluorescence assay; type: cell-based
MDA-MB-435 [27] = experiment: Induction of apoptosis in human MDA-MB-435 cells assessed as caspase 3 cleavage at IC50 concentration after 48 hrs by Western blotting analysis; type: functional, cell-based

Question: Which results are given for `CC(=O)O[C@@]12CO[C@@H]1C[C@H](O)[C@@]1(C)C(=O)[C@H](O)C3=C(C)[C@@H](OC(=O)[C@H](O)[C@@H](NC(=O)OC(C)(C)C)c4ccccc4)C[C@@](O)([C@@H](OC(=O)c4ccccc4)[C@H]21)C3(C)C.O.O.O` [DOCETAXEL]?
Answer: inhibition (4T1 [1]): Active; Activity (Mus musculus [2]): Non-toxic; inhibition (U-251 [3]): Active; inhibition (MDA-MB-435 [4]): Active; inhibition (MDA-MB-435 [5]): Active; inhibition (4T1 [6]): Active; Activity (Mus musculus [7]): Non-toxic; Activity (Mus musculus [8]): Non-toxic

Question: With `Cc1nc(N(C)c2ccccc2)c2[nH]cc(Cc3ccccc3)c2n1.Cl` as the compound, how does the IC50 (HeLa [9]) read?
Answer: > 10000 nM

Question: And the IC50 (HeLa [10])?
Answer: > 10000 nM

Question: And the IC50 (Tubulin)?
Answer: > 20000 nM

Question: For `COc1ccc(Nc2nc(C)nc3c(Cc4ccccc4)c[nH]c23)c(OC)c1.Cl`, which IC50 [11] is on record?
Answer: > 5000 nM

Question: And the IC50 (Tubulin)?
Answer: > 40000 nM

Question: What about the IC50 (NCI/ADR-RES) of the same compound?
Answer: > 5000 nM

Question: Which IC50 (Tubulin) does the source give for `COc1ccc(N(C)c2nc(C)nc3cc[nH]c23)cc1.Cl` here?
Answer: 10000 nM

Question: For `CCN(CC)CCNC(=O)c1c(C)[nH]c(/C=C2\C(=O)Nc3ccc(F)cc32)c1C` [SUNITINIB], which inhibition (MDA-MB-435 [12]) is on record?
Answer: Active

Question: And the Activity (Mus musculus [13])?
Answer: Non-toxic

Question: And the Activity (Mus musculus [14])?
Answer: Non-toxic

Question: What about the inhibition (U-251 [15]) of the same compound?
Answer: Active

Question: And the inhibition (MDA-MB-435 [16])?
Answer: Active

Question: With `COc1ccc(Nc2nc(C)nc3c(Cc4ccccc4)c[nH]c23)cc1.Cl` as the compound, how does the IC50 (HeLa [9]) read?
Answer: > 10000 nM

Question: And the IC50 (HeLa [10])?
Answer: > 10000 nM

Question: And the IC50 (Tubulin)?
Answer: > 20000 nM

Question: What does the source list for `COc1ccc(N(C)c2nc(C)nc3c(Cc4ccccc4)c[nH]c23)cc1.Cl`?
Answer: Activity (MDA-MB-435 [17]): Active; IC50 (HeLa [9]): 280 nM; Activity (Mus musculus [18]): Non-toxic; inhibition (4T1 [19]): Active; inhibition (MDA-MB-435 [20]): Active; IC50 (Chorioallantoic membrane): 2900 nM; inhibition (4T1 [21]): Active; IC50 [11]: 1000 nM; inhibition (U-251 [22]): Active; Activity (MDA-MB-435 [23]): Active; IC50 (HeLa [10]): 280 nM; IC50 (Tubulin): 21000 nM; inhibition (Tubulin (Homo sapiens)): 55%; IC50 (NCI/ADR-RES): 700 nM; inhibition (MDA-MB-435 [24]): Active; Activity (Mus musculus [25]): Non-toxic; Activity (Mus musculus [26]): Non-toxic; growth inhibition (GI) (NCI60): Active; Activity (Homo sapiens): Active; Activity (MDA-MB-435 [27]): Active

Question: With `COc1ccc(/C=C\c2cc(OC)c(OC)c(OC)c2)cc1O` [COMBRETASTATIN A4] as the compound, how does the IC50 (HeLa [9]) read?
Answer: 1.8 nM

Question: And the IC50 (HeLa [10])?
Answer: 2.5 nM

Question: With `CC(=O)O[C@H]1C(=O)[C@@]2(C)[C@H]([C@H](OC(=O)c3ccccc3)[C@]3(O)C[C@H](OC(=O)[C@H](O)[C@@H](NC(=O)c4ccccc4)c4ccccc4)C(C)=C1C3(C)C)[C@]1(OC(C)=O)CO[C@@H]1C[C@@H]2O` [PACLITAXEL] as the compound, how does the IC50 (HeLa [9]) read?
Answer: 5.3 nM

Question: And the IC50 [11]?
Answer: 10 nM

Question: What about the IC50 (HeLa [10]) of the same compound?
Answer: 16 nM

Question: What about the IC50 (NCI/ADR-RES) of the same compound?
Answer: 5000 nM
